The text below walks through data of ChEMBL document CHEMBL5260799, “Pterocarpan scaffold: A natural lead molecule with diverse pharmacological properties” (Eur J Med Chem, 2017).

The subject of one data set is A549. The data set is described as follows: Cytotoxicity against human A549 cells assessed as reduction in cell viability by SRB assay. The class given is functional, cell-based. Background: The SRB assay estimates cell density from bound dye.
Data set [1] has as its system J774.A1. In words: Anti-inflammatory activity against mouse J774.A 1 macrophage assessed as reduction in LPS-induced IL-6 expression by RT-PCR analysis. The class given is functional. Set-up: scale not given: the % may be the effect or the level left.
Data set [2] relates to J774.A1. In words: Anti-inflammatory activity against mouse J774.A 1 macrophage assessed as reduction in LPS-induced TNFalpha expression by RT-PCR analysis. The format is functional. Also noted: scale not given: the % may be the effect or the level left.
A short description of data set [3]: Antiinflammatory activity against mouse primary bone marrow derived macrophages assessed as inhibition of COX-2 at 100 ug/ml. The class given is functional, BMDM. Also noted: scale not given: the % may be the effect or the level left. The conditions noted are these: dose 100 µg/ml.
For data set [4], the target named is Prostaglandin G/H synthase 1 (Homo sapiens, UniProt P23219). In words: Inhibition of COX-1 (unknown origin).
Prostaglandin G/H synthase 1, sequence (P23219 whole entry): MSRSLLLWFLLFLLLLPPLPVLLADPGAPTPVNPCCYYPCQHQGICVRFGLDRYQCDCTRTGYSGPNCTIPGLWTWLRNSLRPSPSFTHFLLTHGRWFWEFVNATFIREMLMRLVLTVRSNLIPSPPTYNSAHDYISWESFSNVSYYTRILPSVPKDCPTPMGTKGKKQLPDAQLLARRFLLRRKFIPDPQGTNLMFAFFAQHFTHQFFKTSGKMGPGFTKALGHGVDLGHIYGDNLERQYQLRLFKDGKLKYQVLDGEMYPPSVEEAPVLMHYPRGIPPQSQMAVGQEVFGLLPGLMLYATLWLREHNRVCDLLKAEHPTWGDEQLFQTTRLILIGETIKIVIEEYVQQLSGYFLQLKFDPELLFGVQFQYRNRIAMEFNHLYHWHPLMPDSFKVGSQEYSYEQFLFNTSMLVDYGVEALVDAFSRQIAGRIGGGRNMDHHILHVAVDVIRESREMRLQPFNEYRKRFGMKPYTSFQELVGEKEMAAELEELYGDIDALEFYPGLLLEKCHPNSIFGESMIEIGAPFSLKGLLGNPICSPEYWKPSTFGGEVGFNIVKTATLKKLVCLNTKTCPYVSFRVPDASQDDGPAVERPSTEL
Another data set deals with Breast carcinoma cell. In words: Cytotoxicity against human Breast carcinoma cell assessed as reduction in cell viability by colorimetric assay. The format is functional, cell-based.
In data set [5] the test system is Plasmodium falciparum. The data set is described as follows: Antiplasmodial activity against Plasmodium falciparum K1 assessed as reduction in parasitic growth by fluorescence based analysis. The class given is functional, organism-based.
For data set [6], the system named is Plasmodium falciparum. The data set is described as follows: Antiplasmodial activity against Plasmodium falciparum W2 assessed as reduction in plasmodial growth after 48 hrs by fluorescence based analysis. The class given is functional, organism-based. The conditions noted are these: W2, 48 h.
Data set [7] relates to KB. In words: Cytotoxicity against human KB cells assessed as reduction in cell viability by colorimetric assay. The class given is functional, cell-based.
The subject of data set [8] is NCI-H187. In words: Cytotoxicity against human NCI-H187 cells assessed as reduction in cell viability by colorimetric assay. The format is functional, cell-based.
The target of data set [9] is Sterol O-acyltransferase 2 (Homo sapiens) (UniProt O75908). In words: Inhibition of human ACAT2 at 100 uM.
Sterol O-acyltransferase 2 (Homo sapiens), sequence (O75908 whole entry): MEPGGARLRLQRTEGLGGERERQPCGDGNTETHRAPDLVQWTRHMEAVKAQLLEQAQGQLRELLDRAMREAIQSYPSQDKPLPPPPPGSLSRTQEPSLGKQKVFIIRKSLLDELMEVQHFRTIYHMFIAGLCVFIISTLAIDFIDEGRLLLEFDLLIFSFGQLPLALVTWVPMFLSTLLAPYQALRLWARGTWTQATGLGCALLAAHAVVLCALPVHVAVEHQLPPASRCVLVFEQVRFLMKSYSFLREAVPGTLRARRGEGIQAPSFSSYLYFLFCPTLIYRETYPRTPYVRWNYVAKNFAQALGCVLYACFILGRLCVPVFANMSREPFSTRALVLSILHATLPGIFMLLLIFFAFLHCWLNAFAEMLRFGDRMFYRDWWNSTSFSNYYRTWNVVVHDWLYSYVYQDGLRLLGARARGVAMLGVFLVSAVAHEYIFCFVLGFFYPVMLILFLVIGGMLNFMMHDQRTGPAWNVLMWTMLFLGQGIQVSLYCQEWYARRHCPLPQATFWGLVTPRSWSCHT
The target of data set [10] is Sterol O-acyltransferase 1 (Homo sapiens) (UniProt P35610). The data set is described as follows: Inhibition of human ACAT1 at 100 uM.
Sterol O-acyltransferase 1 (Homo sapiens), sequence (P35610 whole entry, looked up): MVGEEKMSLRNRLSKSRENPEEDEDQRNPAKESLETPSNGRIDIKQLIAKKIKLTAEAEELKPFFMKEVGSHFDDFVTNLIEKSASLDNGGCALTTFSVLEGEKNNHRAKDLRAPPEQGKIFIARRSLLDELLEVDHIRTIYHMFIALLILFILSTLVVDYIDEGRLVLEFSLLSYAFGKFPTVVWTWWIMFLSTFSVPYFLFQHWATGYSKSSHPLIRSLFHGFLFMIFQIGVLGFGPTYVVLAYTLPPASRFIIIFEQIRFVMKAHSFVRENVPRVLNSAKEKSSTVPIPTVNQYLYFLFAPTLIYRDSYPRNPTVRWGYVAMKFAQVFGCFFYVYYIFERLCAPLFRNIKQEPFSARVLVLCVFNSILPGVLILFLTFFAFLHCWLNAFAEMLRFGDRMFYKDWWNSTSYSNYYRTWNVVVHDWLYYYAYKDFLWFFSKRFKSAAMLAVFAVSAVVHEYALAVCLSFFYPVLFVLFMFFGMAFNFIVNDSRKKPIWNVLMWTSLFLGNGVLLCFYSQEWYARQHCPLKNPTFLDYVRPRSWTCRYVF
A further data set deals with Maltase-glucoamylase (Homo sapiens, UniProt O43451). The data set is described as follows: Inhibition of human Alpha-glucosidase.
Maltase-glucoamylase, sequence (O43451 whole entry): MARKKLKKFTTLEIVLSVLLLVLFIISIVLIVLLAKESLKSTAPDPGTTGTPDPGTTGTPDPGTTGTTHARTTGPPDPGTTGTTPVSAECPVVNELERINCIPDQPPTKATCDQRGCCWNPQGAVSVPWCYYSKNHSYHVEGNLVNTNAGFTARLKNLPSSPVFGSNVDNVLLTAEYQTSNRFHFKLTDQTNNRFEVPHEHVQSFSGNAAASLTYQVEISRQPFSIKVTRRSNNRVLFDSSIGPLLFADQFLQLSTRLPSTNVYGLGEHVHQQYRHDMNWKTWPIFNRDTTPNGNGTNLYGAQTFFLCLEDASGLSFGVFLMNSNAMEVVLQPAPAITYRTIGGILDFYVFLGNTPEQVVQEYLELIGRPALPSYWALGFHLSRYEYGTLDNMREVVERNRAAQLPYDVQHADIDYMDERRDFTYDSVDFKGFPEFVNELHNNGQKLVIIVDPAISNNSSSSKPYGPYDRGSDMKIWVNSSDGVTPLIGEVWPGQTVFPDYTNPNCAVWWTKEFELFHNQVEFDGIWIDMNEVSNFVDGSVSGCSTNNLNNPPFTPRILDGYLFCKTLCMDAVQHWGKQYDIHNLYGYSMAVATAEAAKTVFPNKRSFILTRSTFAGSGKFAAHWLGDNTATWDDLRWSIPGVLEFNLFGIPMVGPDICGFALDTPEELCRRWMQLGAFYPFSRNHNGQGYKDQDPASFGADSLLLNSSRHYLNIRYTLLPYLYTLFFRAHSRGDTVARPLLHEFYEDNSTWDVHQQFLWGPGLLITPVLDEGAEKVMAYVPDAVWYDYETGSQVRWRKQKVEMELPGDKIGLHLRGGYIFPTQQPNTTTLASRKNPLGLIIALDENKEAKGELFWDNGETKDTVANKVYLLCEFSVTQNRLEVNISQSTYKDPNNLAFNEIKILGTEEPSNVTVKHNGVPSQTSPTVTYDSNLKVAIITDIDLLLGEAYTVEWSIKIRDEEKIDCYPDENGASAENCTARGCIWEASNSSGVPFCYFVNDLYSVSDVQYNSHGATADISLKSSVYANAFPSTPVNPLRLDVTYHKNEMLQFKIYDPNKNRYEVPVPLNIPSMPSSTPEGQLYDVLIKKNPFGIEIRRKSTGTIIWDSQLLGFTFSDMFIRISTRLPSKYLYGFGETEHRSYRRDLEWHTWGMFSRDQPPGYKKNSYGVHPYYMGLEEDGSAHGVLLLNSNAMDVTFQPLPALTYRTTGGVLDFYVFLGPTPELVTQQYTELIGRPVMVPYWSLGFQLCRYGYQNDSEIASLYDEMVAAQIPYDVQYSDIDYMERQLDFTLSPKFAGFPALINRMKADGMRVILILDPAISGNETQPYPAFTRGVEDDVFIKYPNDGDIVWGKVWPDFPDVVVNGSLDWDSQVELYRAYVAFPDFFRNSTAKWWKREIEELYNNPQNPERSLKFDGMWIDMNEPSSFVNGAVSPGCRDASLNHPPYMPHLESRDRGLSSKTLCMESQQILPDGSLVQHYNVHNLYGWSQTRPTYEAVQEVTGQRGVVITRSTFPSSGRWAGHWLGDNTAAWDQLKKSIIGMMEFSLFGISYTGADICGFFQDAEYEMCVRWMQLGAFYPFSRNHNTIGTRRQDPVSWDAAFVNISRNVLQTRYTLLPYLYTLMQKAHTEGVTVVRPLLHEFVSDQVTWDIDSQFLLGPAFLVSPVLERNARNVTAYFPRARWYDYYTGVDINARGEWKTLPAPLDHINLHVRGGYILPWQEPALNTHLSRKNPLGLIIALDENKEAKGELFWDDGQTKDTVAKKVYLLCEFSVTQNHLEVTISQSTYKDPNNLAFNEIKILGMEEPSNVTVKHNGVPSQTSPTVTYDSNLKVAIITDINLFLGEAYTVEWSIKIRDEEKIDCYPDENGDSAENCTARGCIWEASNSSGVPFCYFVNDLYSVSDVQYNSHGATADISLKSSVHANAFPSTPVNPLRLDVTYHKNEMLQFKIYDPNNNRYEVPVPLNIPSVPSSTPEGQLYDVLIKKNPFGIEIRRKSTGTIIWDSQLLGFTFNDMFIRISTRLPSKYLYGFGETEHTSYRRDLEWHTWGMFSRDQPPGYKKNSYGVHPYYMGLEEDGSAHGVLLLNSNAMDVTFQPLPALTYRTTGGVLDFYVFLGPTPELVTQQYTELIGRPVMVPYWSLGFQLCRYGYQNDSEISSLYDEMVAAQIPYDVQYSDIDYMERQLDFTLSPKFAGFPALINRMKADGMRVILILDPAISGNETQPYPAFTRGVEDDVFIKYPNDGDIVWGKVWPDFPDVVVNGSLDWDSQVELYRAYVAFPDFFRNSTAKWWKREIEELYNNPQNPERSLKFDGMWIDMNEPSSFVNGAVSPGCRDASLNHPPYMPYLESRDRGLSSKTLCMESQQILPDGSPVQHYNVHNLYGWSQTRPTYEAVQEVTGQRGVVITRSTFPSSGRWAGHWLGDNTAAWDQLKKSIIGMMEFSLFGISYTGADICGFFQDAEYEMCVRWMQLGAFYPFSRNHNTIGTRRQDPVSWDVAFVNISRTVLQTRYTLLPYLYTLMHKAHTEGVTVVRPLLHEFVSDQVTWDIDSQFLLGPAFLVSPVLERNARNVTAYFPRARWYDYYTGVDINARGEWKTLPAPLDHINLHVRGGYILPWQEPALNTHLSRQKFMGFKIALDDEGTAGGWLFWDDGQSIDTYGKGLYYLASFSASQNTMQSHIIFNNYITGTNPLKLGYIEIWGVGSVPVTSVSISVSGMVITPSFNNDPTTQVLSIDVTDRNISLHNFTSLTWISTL
Data set [11] has as its system NCI-H187. The data set is described as follows: Cytotoxicity against human NCI-H187 cells assessed as reduction in cell viability by resazurin microplate assay. The class given is functional, cell-based. (In general: Alamar Blue is a resazurin reagent that responds to reducing activity.)
The subject of data set [12] is Staphylococcus aureus. The data set is described as follows: Antibacterial activity against methicillin-resistant Staphylococcus aureus ATCC 25923 assessed as bacterial growth inhibition by broth dilution method. The format is functional, organism-based. Background: Dilution methods test growth across graded concentrations, often in twofold steps.
Data set [13] has as its system Staphylococcus aureus. In words: Antibacterial activity against Staphylococcus aureus ATCC 25923 assessed as bacterial growth inhibition by broth dilution method. The format is functional, organism-based.
The test system of data set [14] is KB. In words: Cytotoxicity against human KB cells assessed as reduction in cell viability by resazurin microplate assay. The format is functional, cell-based.
Data set [15] has as its system MCF7. The data set is described as follows: Cytotoxicity against human MCF7 cells assessed as reduction in cell viability by resazurin microplate assay. The class given is functional, cell-based.
For a further data set, the system named is HeLa. In words: Cytotoxicity against human HeLa cells assessed as reduction in cell viability by MTT assay. The class given is functional, cell-based.
A further data set relates to MDA-MB-231. In words: Cytotoxicity against human MDA-MB-231 assessed as reduction in cell viability by MTT assay. The class given is functional, cell-based.
Data set [16] has as its system Candida albicans. The data set is described as follows: Antifungal activity against Candida albicans ATCC 10231 assessed as reduction in fungal growth by NCCLS method. The class given is functional.
The subject of data set [17] is Candida albicans. The data set is described as follows: Antifungal activity against multidrug-resistant Candida albicans ATCC 10231 assessed as reduction in fungal growth by NCCLS method. The class given is functional.
Data set [18] can be described thus: Cytotoxicity against mouse N9 cells assessed as reduction in cell viability incubated for 48 hrs by MTT assay. The class given is toxicity, cell-based.
Data set [19] in a line: Cytotoxicity against mouse RAW264.7 cells assessed as increase in NO production measured after 48 hrs by MTT assay. The format is toxicity, cell-based.
The subject of data set [20] is Staphylococcus aureus. The data set is described as follows: Antibacterial activity against methicillin-resistant Staphylococcus aureus ATCC 4330 assessed as bacterial growth inhibition. The class given is functional.
Data set [21] can be described thus: Antioxidant activity assessed as DPPH radical scavenging activity incubated for 20 mins by spectrometry method. The format is functional.
In data set [22] the test system is Candida albicans. The data set is described as follows: Antifungal activity against Candida albicans SC5314 assessed as reduction in fungal growth incubated for 24 hrs by serial dilution method. The format is functional.
In data set [23] the test system is Mycobacterium tuberculosis. In words: Antimycobacterial activity against Mycobacterium tuberculosis H37Rv assessed as inhibition of bacterial growth by Microplate alamar blue assay. The format is functional, organism-based.
Data set [24] concerns Enterococcus. In words: Antibacterial activity against vancomycin-resistant Enterococcus GCMT1 assessed as reduction in bacterial growth incubated for 24 hrs by microbroth dilution method. The format is functional.
For the next data set, the system named is Streptococcus agalactiae. The data set is described as follows: Antibacterial activity against Streptococcus agalactiae ATCC 12386 assessed as reduction in bacterial growth by microbroth dilution method. The format is functional.
Data set [25] concerns Enterococcus. The data set is described as follows: Antibacterial activity against vancomycin-resistant Enterococcus GCMT3 assessed as reduction in bacterial growth incubated for 24 hrs by microbroth dilution method. The format is functional.
The test system of data set [26] is Plasmodium falciparum. In words: Antiplasmodial activity against Plasmodium falciparum K1 assessed as reduction in parasite growth by fluorescence based assay. The class given is functional, organism-based.
The subject of data set [27] is HL-60. In words: Antiproliferative activity against human HL-60 cells assessed as reduction in cell viability at 2.5 ug/ml by tryphan blue staining assay. The format is functional. The conditions noted are these: dose 2.5 µg/ml.
The subject of data set [28] is HL-60. The data set is described as follows: Antiproliferative activity against human HL-60 cells assessed as reduction in cell proliferation measured after 36 hrs by MTT assay. The format is functional, cell-based. The conditions noted are these: HL-60, 36 h.
Another data set deals with MOLT-4. The data set is described as follows: Antiproliferative activity against human MOLT-4 cells assessed as reduction in cell proliferation measured after 24 hrs by MTT assay. The format is functional, cell-based. The conditions noted are these: MOLT-4, 24 h.
Another data set has as its system Jurkat. In words: Antiproliferative activity against human Jurkat cells assessed as reduction in cell proliferation measured after 24 hrs by MTT assay. The class given is functional, cell-based.
Data set [29] relates to MCF7. In words: Antiproliferative activity against human MCF7 cells assessed as growth inhibition measured after 48 hrs by CellTiter-Blue assay. The conditions noted are these: MCF7, 48 h. The format is functional, cell-based.
A further data set has as its system K562. In words: Antiproliferative activity against human K562 cells assessed as reduction in cell proliferation measured after 36 hrs by MTT assay. The class given is functional, cell-based. The conditions noted are these: K562, 36 h.
Data set [30] deals with HL-60. The data set is described as follows: Antiproliferative activity against human HL-60 cells assessed as reduction in cell viability at 1.25 ug/ml by tryphan blue staining assay. The class given is functional. The conditions noted are these: dose 1.25 µg/ml.
Data set [31] in a line: Antiproliferative activity against human PBMC cells assessed as reduction in cell viability at 10 microg/ml measured after 72 hrs by MTT assay. The format is toxicity, cell-based. The conditions noted are these: at 10 µg/mL.
Data set [32] concerns Mycobacterium tuberculosis. The data set is described as follows: Antimycobacterial activity against Mycobacterium tuberculosis H37Ra assessed as reduction in bacterial growth by MABA method. The format is functional.

Converted amounts (≈) assume the structure as drawn.

On to `CC1(C)Oc2cc3c(cc2CC1O)[C@@H]1Oc2cc(O)ccc2[C@@H]1CO3` (some centres not stated) [RAUTANDIOL A], for which the half-maximal inhibitory concentration (IC50) in the data set on A549 is greater than 5 µg/mL.

For `OC[C@H]1O[C@H](Oc2ccc3c(c2)OCC2c4cc5c(cc4OC32)OCO5)[C@H](O)[C@@H](O)[C@@H]1O` (some centres not stated), the Activity with J774.A1 [1] and with J774.A1 [2] was 25% each time.

As to `COc1ccc2c(c1O)OC1c3ccc(O)c(OC)c3OCC21` (configuration not stated), the Activity in data set [3] is given as 52.5%. The compound also returned an IC50 in data set [4] of 30.5 µM.

Regarding `CC(C)=CCc1c(O)ccc2c1O[C@H]1c3ccc(O)cc3OC[C@@H]21` [PHASEOLLIDIN], the IC50 in the data set on Breast carcinoma cell amounted to 14.3 µg/mL (≈ 44.1 µM); with Plasmodium falciparum [5], 9.09 µg/mL (≈ 28 µM); in the data set with Plasmodium falciparum [6] it was 1.66 µg/mL (≈ 5.12 µM); in the data set with KB [7] it was 7.7 µg/mL (≈ 23.7 µM); in the data set with NCI-H187 [8], 5.05 µg/mL (≈ 15.6 µM).

On to `CC1(C)C=Cc2c(ccc3c2OC2c4ccc(O)cc4OCC32)O1` (configuration not stated), for which the inhibition in data set [9] amounted to 67.4%; in data set [10], 85.9%. The IC50 against Maltase-glucoamylase is 6 µM.

`COc1ccc2c(c1CC=C(C)C)OC1c3ccc(O)cc3OCC21` (configuration not stated): the IC50 in the data set with NCI-H187 [11] was found to be 5.37 µg/mL (≈ 15.9 µM); with Staphylococcus aureus [12] it was 4 µg/mL (≈ 11.8 µM); in the data set on Staphylococcus aureus [13], 4 µg/mL (≈ 11.8 µM); in the data set on KB [14], 12.5 µg/mL (≈ 37 µM); in the data set on MCF7 [15], 7.51 µg/mL (≈ 22.2 µM).

For the compound `O=c1cccc2n1C[C@@H]1C[C@H]2CN(Cc2c(O)ccc3c2OC[C@H]2c4cc5c(cc4O[C@@H]32)OCO5)C1`, the IC50 in the data set with HeLa was 24.3 µM; in the data set with MDA-MB-231, 48.9 µM.

For the compound `COc1ccc2c(c1CC=C(C)C)O[C@H]1c3ccc(O)cc3OCC21` (some centres not stated), the IC50 was 16 µg/mL (≈ 47.3 µM) in the data set on Staphylococcus aureus [12], 1.83 µg/mL (≈ 5.41 µM) with Plasmodium falciparum [6] and 8 µg/mL (≈ 23.6 µM) with Staphylococcus aureus [13]. In addition, the values for the MIC in the data set with Candida albicans [16] and with Candida albicans [17] were 3.8 µg/mL (≈ 11.2 µM) and 1.9 µg/mL (≈ 5.61 µM), respectively.

Take `C=C(C)/C(C)=C/c1c(O)ccc2c1O[C@H]1c3ccc(O)cc3OC[C@@H]21`: the IC50 at 48 h in data set [18] was determined as 9.4 µM; in data set [19], 23 µM.

In the case of `COc1ccc2c(c1CC=C(C)C)O[C@H]1c3ccc(O)c(CC=C(C)C)c3OC[C@@]21O`, in the data set with Staphylococcus aureus [20], the MIC50 is 6.25 µM (≈ 2.64 µg/mL).

In the case of `COc1c(O)cc2c(c1OC)O[C@H]1c3ccc(O)cc3OC[C@@H]21`, the IC50 in data set [21] stood at 3.8 µM.

Consider `Oc1cc2c(cc1O)[C@@H]1Oc3cc4c(cc3[C@@H]1CO2)OCO4`, for which the MIC with Candida albicans [22] worked out at 32 µg/mL (≈ 107 µM).

Consider `CC(C)=CCc1c(O)ccc2c1O[C@H]1c3ccc(O)c(CC=C(C)C)c3OC[C@@H]21` [ERYBRAEDIN A], for which the IC50 was found to be 2.9 µg/mL (≈ 7.39 µM) in the data set on Breast carcinoma cell; 25 µg/mL (≈ 63.7 µM) in data set [23]; 5.1 µg/mL (≈ 13 µM) with KB [7]; 2.1 µg/mL (≈ 5.35 µM) with NCI-H187 [8]; 3.4 µg/mL (≈ 8.66 µM) in the data set on Plasmodium falciparum [26]. Also, the MIC in the data set on Enterococcus [24] amounted to 1.56 µg/mL (≈ 3.97 µM); with Streptococcus agalactiae, 0.78 µg/mL (≈ 1.99 µM); in the data set on Enterococcus [25] it was 3.13 µg/mL (≈ 7.97 µM).

On to `COc1ccc2c(c1)O[C@@H]1c3cc(OC)c(OC)cc3OC[C@H]21`, for which the Activity in the data set with HL-60 [27] is given as 42.6%; with HL-60 [30], 34.4%. In addition, the IC50 in the data set on HL-60 [28] is 2.5 µg/mL (≈ 7.95 µM); with MOLT-4 it was 45.9 µg/mL (≈ 146 µM); in the data set on Jurkat, greater than 10 µg/mL; with MCF7 [29] it was 8 µM; in the data set on K562 it was 2.8 µg/mL (≈ 8.91 µM). Further, the inhibition at 72 h, 10 microg/ml in data set [31] was 19%.

As to `COc1c(CC=C(C)C)c(O)cc2c1[C@@H]1Oc3c(ccc(O)c3CC=C(C)C)[C@@H]1CO2`, in data set [32], the MIC amounted to 50 µg/mL (≈ 118 µM).

For orientation: IC50 means the point on the concentration scale where inhibition reaches its midpoint. Broadly, the inhibition is the change of the read-out against control, counted positive when it falls. What is called MIC is the least concentration at which growth counts as inhibited. For orientation: MIC50 means the lowest concentration that inhibits either 50% of growth or 50% of the strains tested, depending on the study.
